Reference: patent US6737383B1, “Herbicidal oxadiazolidines” (priority 1999, dated 2004)

Assays:
cocklebur = assay: Test B pre/postemergence cocklebur; format: in vivo, Xanthium strumarium
Procedure, shortened: (§1)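 Herbicidal effect was estimated by eye on a ten-point control scale after plants spent twelve to sixteen days in a greenhouse following soil or foliar treatment. Foliar sprays targeted plants at one to four leaves; all doses were formulated in a non-phytotoxic solvent with surfactant.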

corn = assay: Test B pre/postemergence corn; format: in vivo, Zea mays
Procedure, shortened: as §1

surinam grass = assay: Test B pre/postemergence surinam grass; format: in vivo, Brachiaria decumbens
Procedure, shortened: as §1

wild oat = assay: Test B pre/postemergence wild oat; format: in vivo, Avena fatua
Procedure, shortened: as §1

rape = assay: Test B pre/postemergence rape; format: in vivo, Brassica napus
Procedure, shortened: as §1

purple nutsedge = assay: Test B pre/postemergence purple nutsedge; format: in vivo, Cyperus rotundus
Procedure, shortened: as §1

duck salad = assay: Test B flood test duck salad; format: in vivo, Heteranthera limosa
Procedure, shortened: (§2)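 Plants were grown to the 2-leaf stage before treatment with test chemical, then held in a greenhouse for twelve to sixteen days. Injury was visually rated against untreated controls on a 0–10 scale, where 0 is no effect and 10 is complete control.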

blackgrass = assay: Test B pre/postemergence blackgrass; format: in vivo, Alopecurus myosuroides
Procedure, shortened: as §1

wheat = assay: Test B pre/postemergence wheat; format: in vivo, Triticum aestivum
Procedure, shortened: as §1

rice = assay: Test B flood test rice; format: in vivo, Oryza sativa
Procedure, shortened: as §2

smallflower flatsedge = assay: Test B flood test smallflower flatsedge; format: in vivo, Cyperus difformis
Procedure, shortened: as §2

pigweed = assay: Test B pre/postemergence pigweed; format: in vivo, Amaranthus retroflexus
Procedure, shortened: as §1

bamyardgrass = assay: Test B flood test barnyardgrass; format: in vivo, Echinochloa crus-galli
Procedure, shortened: as §2

morningglory = assay: Test B pre/postemergence morningglory; format: in vivo, Ipomoea hederacea
Procedure, shortened: as §1

velvetleaf = assay: Test B pre/postemergence velvetleaf; format: in vivo, Abutilon theophrasti
Procedure, shortened: as §1

[1] = Postemergence, Rate 250 g/ha, scale 0 to 10
[2] = Postemergence, Rate 500 g/ha, scale of 0 to 10 where 0 is no effect and 10 is complete control
[3] = Postemergence, Rate 1000 g/ha, scale 0 to 10 (0 no effect, 10 complete control)
[4] = Preemergence, Rate 125 g/ha, scale of 0 to 10 where 0 is no effect and 10 is complete control
[5] = Preemergence, Rate 250 g/ha, scale 0 to 10, 0 is no effect, 10 is complete control
[6] = Preemergence, Rate 500 g/ha, scale 0 to 10, 0 is no effect, 10 is complete control
[7] = Rate 125 g/ha, Postemergence, scale 0 to 10, 0 is no effect, 10 is complete control
[8] = Rate 1000 g/ha, Preemergence, scale 0 to 10 (0 no effect, 10 complete control)
[9] = Pre-emergence, Rate 1000 g/ha, scale 0 to 10 (0 no effect, 10 complete control)
[10] = Rate 125 g/ha, under heading Pre-emergence, flood test species, visual evaluation after twelve to sixteen days
[11] = Rate 250 g/ha, Pre-emergence (flood test species), scale 0 to 10, 0 is no effect, 10 is complete control
[12] = Rate 500 g/ha, Pre-emergence, flood test species, scale 0 to 10 (0 no effect, 10 complete control)

**Q.** How did the “Cocklebur plant response rating” value (cocklebur; [1]) turn out when CCOP(=O)(Cn1c(=O)on(C(=O)N(c2ccccc2)C(C)C)c1=O)OCC [Compound 447] was run?
**A.** 0

**Q.** And the “Cocklebur plant response rating” value (cocklebur; [2])?
**A.** 0

**Q.** What about the “Cocklebur plant response rating” value (cocklebur; [3]) of the same molecule?
**A.** 0

**Q.** What about the “Plant response rating, Cocklebur” value (cocklebur; [4]) of the same molecule?
**A.** 0

**Q.** What about the “Cocklebur plant response rating” value (cocklebur; [5]) of the same molecule?
**A.** 0

**Q.** What about the “Cocklebur plant response rating” value (cocklebur; [6]) of the same molecule?
**A.** 0

**Q.** And the “Cocklebur plant response rating” value (cocklebur; [7])?
**A.** 0

**Q.** What about the “Plant response rating, Cocklebur” value (cocklebur; [8]) of the same molecule?
**A.** 0

**Q.** And the “Corn plant response rating” value (corn; [1])?
**A.** 0

**Q.** What about the “Corn plant response rating” value (corn; [2]) of the same molecule?
**A.** 0

**Q.** And the “Corn plant response rating” value (corn; [3])?
**A.** 0

**Q.** And the “Plant response rating, Corn” value (corn; [4])?
**A.** 0

**Q.** What about the “Corn plant response rating” value (corn; [5]) of the same molecule?
**A.** 0

**Q.** What about the “Corn plant response rating” value (corn; [6]) of the same molecule?
**A.** 0

**Q.** And the “Corn plant response rating” value (corn; [7])?
**A.** 0

**Q.** What about the “Plant response rating, Corn” value (corn; [8]) of the same molecule?
**A.** 0

**Q.** And the “B. signalgrass plant response rating” value (surinam grass; Postemergence, Rate 250 g/ha, scale 0 to 10, 0 no effect, 10 complete control)?
**A.** 0

**Q.** What about the “B. signalgrass plant response rating” value (surinam grass; [2]) of the same molecule?
**A.** 0

**Q.** And the “B. signalgrass plant response rating” value (surinam grass; [3])?
**A.** 2

**Q.** What about the “Plant response rating, B. signalgrass” value (surinam grass; [4]) of the same molecule?
**A.** 0

**Q.** What about the “B. signalgrass plant response rating” value (surinam grass; [5]) of the same molecule?
**A.** 0

**Q.** And the “B. signalgrass plant response rating” value (surinam grass; [6])?
**A.** 0

**Q.** And the “B. signalgrass plant response rating” value (surinam grass; [7])?
**A.** 0

**Q.** What about the “Plant response rating, B. signalgrass” value (surinam grass; [8]) of the same molecule?
**A.** 6

**Q.** And the “Wild oats plant response rating” value (wild oat; [1])?
**A.** 0

**Q.** And the “Wild oats plant response rating” value (wild oat; [2])?
**A.** 0

**Q.** And the “Wild oats plant response rating” value (wild oat; [3])?
**A.** 0

**Q.** What about the “Plant response rating, Wild oats” value (wild oat; [4]) of the same molecule?
**A.** 0

**Q.** What about the “Wild oats plant response rating” value (wild oat; [5]) of the same molecule?
**A.** 2

**Q.** What about the “Wild oats plant response rating” value (wild oat; [6]) of the same molecule?
**A.** 7

**Q.** What about the “Wild oats plant response rating” value (wild oat; [7]) of the same molecule?
**A.** 0

**Q.** What about the “Plant response rating, Wild oats” value (wild oat; [8]) of the same molecule?
**A.** 10

**Q.** And the “Rape plant response rating” value (rape; [1])?
**A.** 0

**Q.** And the “Rape plant response rating” value (rape; [2])?
**A.** 0

**Q.** And the “Rape plant response rating” value (rape; [3])?
**A.** 0

**Q.** And the “Plant response rating, Rape” value (rape; [4])?
**A.** 0

**Q.** And the “Rape plant response rating” value (rape; [5])?
**A.** 0

**Q.** What about the “Rape plant response rating” value (rape; [6]) of the same molecule?
**A.** 0

**Q.** And the “Rape plant response rating” value (rape; [7])?
**A.** 0

**Q.** And the “Plant response rating, Rape” value (rape; [8])?
**A.** 0

**Q.** And the “Nutsedge plant response rating” value (purple nutsedge; [1])?
**A.** 0

**Q.** What about the “Nutsedge plant response rating” value (purple nutsedge; [2]) of the same molecule?
**A.** 0

**Q.** And the “Nutsedge plant response rating” value (purple nutsedge; [3])?
**A.** 0

**Q.** And the “Plant response rating, Nutsedge” value (purple nutsedge; [4])?
**A.** 0

**Q.** What about the “Nutsedge plant response rating” value (purple nutsedge; [5]) of the same molecule?
**A.** 0

**Q.** And the “Nutsedge plant response rating” value (purple nutsedge; [6])?
**A.** 0

**Q.** What about the “Nutsedge plant response rating” value (purple nutsedge; [7]) of the same molecule?
**A.** 0

**Q.** And the “Plant response rating, Nutsedge” value (purple nutsedge; [8])?
**A.** 0

**Q.** What about the “Ducksalad plant response rating” value (duck salad; [9]) of the same molecule?
**A.** 0

**Q.** And the “Ducksalad plant response rating (0 to 10 scale, 0 is no effect, 10 is complete control)” value (duck salad; [10])?
**A.** 0

**Q.** What about the “Ducksalad plant response rating” value (duck salad; [11]) of the same molecule?
**A.** 0

**Q.** What about the “Ducksalad plant response rating” value (duck salad; [12]) of the same molecule?
**A.** 0

**Q.** And the “Blackgrass plant response rating” value (blackgrass; [1])?
**A.** 0

**Q.** And the “Blackgrass plant response rating” value (blackgrass; [2])?
**A.** 2

**Q.** And the “Blackgrass plant response rating” value (blackgrass; [3])?
**A.** 7

**Q.** And the “Plant response rating, Blackgrass” value (blackgrass; [4])?
**A.** 0

**Q.** What about the “Blackgrass plant response rating” value (blackgrass; [5]) of the same molecule?
**A.** 0

**Q.** What about the “Blackgrass plant response rating” value (blackgrass; [6]) of the same molecule?
**A.** 0

**Q.** What about the “Blackgrass plant response rating” value (blackgrass; [7]) of the same molecule?
**A.** 0

**Q.** What about the “Plant response rating, Blackgrass” value (blackgrass; [8]) of the same molecule?
**A.** 3

**Q.** And the “Wheat plant response rating” value (wheat; [1])?
**A.** 0

**Q.** And the “Wheat plant response rating” value (wheat; [2])?
**A.** 0

**Q.** What about the “Wheat plant response rating” value (wheat; [3]) of the same molecule?
**A.** 0

**Q.** What about the “Plant response rating, Wheat” value (wheat; [4]) of the same molecule?
**A.** 0

**Q.** What about the “Wheat plant response rating” value (wheat; [5]) of the same molecule?
**A.** 0

**Q.** What about the “Wheat plant response rating” value (wheat; [6]) of the same molecule?
**A.** 0

**Q.** What about the “Wheat plant response rating” value (wheat; [7]) of the same molecule?
**A.** 0

**Q.** And the “Plant response rating, Wheat” value (wheat; [8])?
**A.** 0

**Q.** What about the “Rice plant response rating” value (rice; [9]) of the same molecule?
**A.** 0

**Q.** And the “Rice plant response rating (0 to 10 scale, 0 is no effect, 10 is complete control)” value (rice; [10])?
**A.** 0

**Q.** What about the “Rice plant response rating” value (rice; [11]) of the same molecule?
**A.** 0

**Q.** What about the “Rice plant response rating” value (rice; [12]) of the same molecule?
**A.** 0

**Q.** What about the “S. Flatsedge plant response rating” value (smallflower flatsedge; [9]) of the same molecule?
**A.** 0

**Q.** What about the “S. Flatsedge plant response rating (0 to 10 scale, 0 is no effect, 10 is complete control)” value (smallflower flatsedge; [10]) of the same molecule?
**A.** 0

**Q.** What about the “S. Flatsedge plant response rating” value (smallflower flatsedge; [11]) of the same molecule?
**A.** 0

**Q.** What about the “S. Flatsedge plant response rating” value (smallflower flatsedge; [12]) of the same molecule?
**A.** 0

**Q.** What about the “Redroot pigweed plant response rating” value (pigweed; [1]) of the same molecule?
**A.** 0

**Q.** What about the “Redroot pigweed plant response rating” value (pigweed; [2]) of the same molecule?
**A.** 0

**Q.** And the “Redroot pigweed plant response rating” value (pigweed; [3])?
**A.** 0

**Q.** And the “Plant response rating, Redroot pigweed” value (pigweed; [4])?
**A.** 0

**Q.** What about the “Redroot pigweed plant response rating” value (pigweed; [5]) of the same molecule?
**A.** 0

**Q.** And the “Redroot pigweed plant response rating” value (pigweed; [6])?
**A.** 0

**Q.** And the “Redroot pigweed plant response rating” value (pigweed; [7])?
**A.** 0

**Q.** And the “Plant response rating, Redroot pigweed” value (pigweed; [8])?
**A.** 0

**Q.** And the “Barnyardgrass plant response rating” value (bamyardgrass; [9])?
**A.** 0

**Q.** What about the “Barnyardgrass plant response rating (0 to 10 scale, 0 is no effect, 10 is complete control)” value (bamyardgrass; [10]) of the same molecule?
**A.** 0

**Q.** What about the “Barnyardgrass plant response rating” value (bamyardgrass; [11]) of the same molecule?
**A.** 0

**Q.** What about the “Barnyardgrass plant response rating” value (bamyardgrass; [12]) of the same molecule?
**A.** 0

**Q.** And the “Morningglory plant response rating” value (morningglory; [1])?
**A.** 4

**Q.** And the “Morningglory plant response rating” value (morningglory; [2])?
**A.** 7

**Q.** What about the “Morningglory plant response rating” value (morningglory; [3]) of the same molecule?
**A.** 10

**Q.** And the “Plant response rating, Morningglory” value (morningglory; [4])?
**A.** 0

**Q.** And the “Morningglory plant response rating” value (morningglory; [5])?
**A.** 0

**Q.** What about the “Morningglory plant response rating” value (morningglory; [6]) of the same molecule?
**A.** 0

**Q.** And the “Morningglory plant response rating” value (morningglory; [7])?
**A.** 2

**Q.** And the “Plant response rating, Morningglory” value (morningglory; [8])?
**A.** 2

**Q.** And the “Velvetleaf plant response rating” value (velvetleaf; [1])?
**A.** 0

**Q.** And the “Velvetleaf plant response rating” value (velvetleaf; [2])?
**A.** 0

**Q.** What about the “Velvetleaf plant response rating” value (velvetleaf; [3]) of the same molecule?
**A.** 0

**Q.** What about the “Plant response rating, Velvetleaf” value (velvetleaf; [4]) of the same molecule?
**A.** 0

**Q.** And the “Velvetleaf plant response rating” value (velvetleaf; [5])?
**A.** 0

**Q.** What about the “Velvetleaf plant response rating” value (velvetleaf; [6]) of the same molecule?
**A.** 0

**Q.** What about the “Velvetleaf plant response rating” value (velvetleaf; [7]) of the same molecule?
**A.** 0

**Q.** And the “Plant response rating, Velvetleaf” value (velvetleaf; [8])?
**A.** 0
